Our source for the Kd values is patent US20260373266A1, “PROTEIN DEGRADERS AND USES THEREOF” (KYMERA THERAPEUTICS, INC., priority 2022, published 2026).

The term Kd denotes the constant that tells how readily two partners part at equilibrium.

T1 sequence (Q9Y4B6 1077-1390): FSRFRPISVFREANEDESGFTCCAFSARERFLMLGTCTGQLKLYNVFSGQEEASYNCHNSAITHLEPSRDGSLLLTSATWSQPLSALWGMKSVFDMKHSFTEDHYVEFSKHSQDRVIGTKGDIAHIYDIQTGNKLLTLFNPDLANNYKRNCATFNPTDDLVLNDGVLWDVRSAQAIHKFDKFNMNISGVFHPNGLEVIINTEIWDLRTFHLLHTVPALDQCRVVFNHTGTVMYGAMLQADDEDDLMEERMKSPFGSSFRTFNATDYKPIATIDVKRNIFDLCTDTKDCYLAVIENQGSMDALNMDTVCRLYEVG

This test addresses T1, DCAF1 WD40 domain (residues 1077-1390) (Homo sapiens, UniProt Q9Y4B6).
T1 construct: DCAF1 WD40 domain (residues 1077-1390)
Description: DCAF1 binding assay by SPR (Biacore 8K+), DCAF1-3 KD. Particulars: 25 °C, read-out: DCAF1-3 SPR (KD).
Regarding `NCCNCc1cc(N[C@@H]2CCCN(c3cccc(F)c3)C2)cc(N2CCCCC2)c1` [I-947], the Kd was 100 to 200 µM.
To `COCCN(c1nccc(N2CCOCC2)n1)[C@@H]1CCCN(c2cccc(F)c2)C1` [I-40] belongs 100 to 200 µM.
As for `NCCOCCOCCOCCOCC(=O)c1[nH]cc(C(=O)N[C@@H](CC(N)=O)c2cccc(Cl)c2)c1-c1ccccc1F` [I-674], the dissociation constant (Kd) was under 10 µM.
Consider `NC[C@@H]1CC[C@H](Nc2cc(N3CCCCC3)ccn2)CN1c1cccc(F)c1` [I-1022], for which the Kd was in the range of 10 to 100 µM.
The result for `NC(=O)C[C@H](NC(=O)c1n[nH]c2c1CNCC2)c1cccc(Cl)c1` [I-298] reads over 200 µM; that for `NC(=O)C[C@@]1(NC(=O)c2c[nH]nc2-c2ccccc2F)CCCc2cc(Cl)ccc21` [I-241], over 200 µM.
As to `CCc1cccc([C@H](CC(N)=O)NC(=O)c2cn[nH]c2-c2ccccc2F)c1` [I-638], the dissociation constant Kd is over 200 µM.
Regarding `Cc1sc2c(c1C)C(c1ccc(Cl)cc1)=N[C@@H](CC(=O)NCCOCCOCCOCCOCCOCCOCC(=O)c1[nH]cc(C(=O)N[C@@H](CC(N)=O)c3cccc(Cl)c3)c1-c1ccccc1F)c1nnc(C)n1-2` [I-898], the dissociation constant Kd is under 10 µM.
To `c1cc2ccc(N3CCC[C@@H](Nc4cc(N5CCOCC5)ncn4)C3)cc2cn1` [I-402] belongs over 200 µM.
On to `c1cc(C2CC2)cc(N2CCC[C@@H](Nc3cc(N4CCOCC4)ccn3)C2)c1` [I-526], for which the Kd was in the range of 10 to 100 µM.
Turning to `O[C@@]1(c2ccccc2)CCC[C@@H](Nc2cc(N3CCCCC3)ccn2)C1` [I-929], the Kd was in the range of 10 to 100 µM.
On to `O=C(O)CCN(c1cc(N2CCOCC2)ccn1)[C@@H]1CCCN(c2cccc(F)c2)C1` [I-288], for which the Kd is over 200 µM.
`c1ccc2c(N3CCC[C@@H](Nc4cc(N5CCOCC5)ccn4)C3)nccc2c1` [I-62]: the dissociation constant Kd was over 200 µM.
Take `NC(=O)[C@@H]1CCN(C(=O)c2c[nH]nc2-c2ccccc2F)[C@@H]1c1cccc(Cl)c1` [I-204]: the Kd is over 200 µM.
`OCCC[C@H]1C[C@@H]2[C@H](CCCN2c2cccc(F)c2)N1c1cc(N2CCCCC2)ccn1` [I-826]: the Kd is 10 to 100 µM.
To `CS(=O)(=O)CCc1ccc(F)c(-c2[nH]ncc2C(=O)N[C@H](CC(N)=O)c2cccc(Cl)c2)c1` [I-531] belongs over 200 µM; to `Oc1ccc(C2CCCCC2)cc1N[C@@H]1CCCN(c2cccc(F)c2)C1` [I-921], 10 to 100 µM; to `Cc1c(F)ccc(F)c1-c1c(C(=O)N[C@@H](CC(N)=O)c2cccc(Cl)c2)cn(C)c1C(=O)c1ccc(CN2CCC(C=O)CC2)cc1` [I-1037], under 10 µM.
In the case of `Cc1c(F)ccc(F)c1-c1[nH]ncc1C(=O)N[C@@H](CC(=O)N1CCN(C)CC1)c1cccc(Cl)c1` [I-843], the Kd was under 10 µM.
The result for `COC(=O)c1cc(-c2cccc(N3CCC[C@@H](Nc4cc(N5CCOCC5)ccn4)C3)c2)on1` [I-785] reads over 200 µM.
For `CS(=O)(=O)CCc1ccc(F)c(-c2[nH]ncc2C(=O)N[C@@H](CC(N)=O)c2cccc(Cl)c2)c1` [I-247], the Kd is over 200 µM.
The result for `c1ccc2c(N3CCC[C@@H](Nc4cc(N5CCOCC5)ccn4)C3)nncc2c1` [I-65] reads 100 to 200 µM.
On to `c1ccc(COc2cccc(N3CCC[C@@H](Nc4cc(N5CCOCC5)ccn4)C3)c2)cc1` [I-690], for which the equilibrium dissociation constant (Kd) was over 200 µM.
Take `Nc1nc(N[C@@H]2CCCN(c3cccc(F)c3)C2)cc(N2CCOCC2)n1` [I-368]: the Kd was over 200 µM.
For the molecule `Fc1cccc(N2CCC[C@@H](n3cnc4c(N5CCOCC5)ncnc43)C2)c1` [I-51], the Kd was over 200 µM.
Take `C=CC(=O)N1CCCC(c2[nH]ncc2C(=O)N[C@@H](CC(N)=O)c2cccc(Cl)c2)C1` (some centres unmarked) [I-542]: the Kd was in the range of 100 to 200 µM.
As to `CS(=O)(=O)Cc1ccc(F)c(-c2[nH]ncc2C(=O)N[C@@H](CC(N)=O)c2cccc(Cl)c2)c1` [I-246], the equilibrium dissociation constant (Kd) is over 200 µM.
As to `NCCNC(=O)c1ccc(N2CCCCC2)cc1N[C@@H]1CCCN(c2cccc(F)c2)C1` [I-991], the dissociation constant (Kd) lay in the range of 10 to 100 µM.
The result for `Cc1c(F)ccc(F)c1-c1c(C(=O)N[C@@H](CC(=O)N2CCNCC2)c2cccc(Cl)c2)c[nH]c1C(=O)c1ccccc1` [I-851] reads under 10 µM; that for `Nc1ncc(N[C@@H]2CCCN(c3cccc(F)c3)C2)cc1N1CCOCC1` [I-546], under 10 µM.
For the molecule `c1cn(Cc2ccc(N3CCC[C@@H](Nc4cc(N5CCOCC5)ccn4)C3)cc2)cn1` [I-692], the Kd fell in the range of 100 to 200 µM.
Consider `c1ccc2c(N3CCC[C@@H](Nc4cc(N5CCOCC5)ncn4)C3)ccnc2c1` [I-392], for which the Kd was over 200 µM.
As to `c1cc(N2CCC[C@@H](Nc3cc(N4CCOCC4)ncn3)C2)c2ccncc2c1` [I-394], the Kd is over 200 µM.
As for `Cc1cccc(F)c1-c1c(C(=O)N[C@@H](CC(N)=O)c2cccc(Cl)c2)c[nH]c1C(=O)C1CCCCC1` [I-606], the dissociation constant (Kd) was under 10 µM.
Turning to `c1ccc([C@H]2CCC[C@H](Nc3cc(N4CCCCC4)ccn3)C2)cc1` [I-755], the Kd was under 10 µM.
For `NC(=O)C[C@H](NC(=O)c1cnn(Cc2ccncn2)c1-c1ccccc1F)c1cccc(Cl)c1` [I-154], the equilibrium dissociation constant (Kd) is over 200 µM.
For the molecule `C[C@H]1[C@@H](O)CCCN1c1ccnc(N2CC[C@@H]3[C@H]2CCCN3c2cccc(F)c2)c1` [I-833], the Kd is under 10 µM.
As for `NC(=O)CCc1cccc(N2CCC[C@@H]3[C@H]2CCN3c2cc(N3CCCCC3)ccn2)c1` [I-879], the equilibrium dissociation constant (Kd) was in the range of 10 to 100 µM.
As for `COCCc1[nH]cc(C(=O)N[C@@H](CC(N)=O)c2cccc(Cl)c2)c1-c1ccccc1F` [I-362], the Kd is over 200 µM.
As to `Cc1c(F)ccc(F)c1-c1[nH]ncc1C(=O)N[C@@H](CC(=O)N1CCN(C(=O)OCc2ccccc2)CC1)c1cccc(Cl)c1` [I-884], the Kd is under 10 µM.
On to `c1ccc2cc(N3CCC[C@@H](Nc4cc(N5CCOCC5)ncn4)C3)ncc2c1` [I-398], for which the Kd is over 200 µM.
For the molecule `OCCc1ccc(N2CCC[C@@H](Nc3cc(N4CCOCC4)ccn3)C2)nc1` [I-691], the Kd lay in the range of 10 to 100 µM.
As for `NC(=O)C[C@H](NC(=O)c1c[nH]nc1-c1cccc2ccnn12)c1cccc(Cl)c1` [I-236], the Kd is over 200 µM.
On to `O=C(N[C@H](c1cccc(Cl)c1)[C@@H]1CCNC1=O)c1c[nH]nc1-c1ccccc1F` [I-193], for which the Kd was over 200 µM.
For the molecule `Cc1c(F)ccc(F)c1-c1[nH]ncc1C(=O)N[C@@H](CC(=O)N1CC(O)C1)c1cccc(Cl)c1` [I-877], the Kd is under 10 µM.
On to `CC(=O)NC1CCC2(CC1)CCN(c1ccnc(N3CC[C@@H]4[C@H]3CCCN4c3cccc(F)c3)c1)CC2` [I-1047], for which the Kd was under 10 µM.
On to `c1cc(N2CCOCC2)cc(NC2CCCN(c3cnn[nH]3)C2)n1` (centres unmarked) [I-486], for which the Kd is over 200 µM.
Regarding `Fc1cccc(N2CCC[C@@H](N3CCCc4c(N5CCCCC5)ccnc43)C2)c1` [I-808], the equilibrium dissociation constant (Kd) was over 200 µM.
As for `Fc1cccc(N2CCC[C@@H](Nc3cc(N4Cc5ccccc5C4)ccn3)C2)c1` [I-554], the Kd lay within 10 to 100 µM.
On to `c1cc(N2CCOCC2)cc(N[C@@H]2CCCN(c3cnn[nH]3)C2)n1` [I-534], for which the equilibrium dissociation constant (Kd) was over 200 µM.
As for `Cc1c(F)ccc(F)c1-c1c(C(=O)N[C@@H](CC(N)=O)c2cccc(Cl)c2)c[nH]c1/C(=N/OC(C)C)c1ccccc1` [I-759], the equilibrium dissociation constant (Kd) was under 10 µM.
On to `C=CC(=O)N1CCN(c2ccnc(N[C@@H]3CCCN(c4cccc(F)c4)C3)c2)CC1` [I-446], for which the equilibrium dissociation constant (Kd) is over 200 µM.
To `C[C@H]1CCCCN1c1ccnc(N[C@@H]2CCCN(c3cccc(F)c3)C2)c1` [I-569] belongs under 10 µM; to `NC(=O)C[C@H](NC(=O)c1n[nH]nc1-c1ncccc1F)c1cccc(Cl)c1` [I-201], over 200 µM.
For `NC(=O)C[C@H](NC(=O)c1cn[nH]c1-c1ccccc1F)c1ccccc1O` [I-339], the Kd is over 200 µM.
To `Oc1ccc(F)cc1N1CCC[C@@H]2[C@H]1CCN2c1cc(N2CCCCC2)ccn1` [I-812] belongs 10 to 100 µM; to `Cc1sc2c(c1C)C(c1ccc(Cl)cc1)=N[C@@H](CC(=O)NCCOCCOCCOCCOCCOCCOCCC1CCN(c3ccnc(N4CC[C@@H]5[C@H]4CCCN5c4cccc(F)c4)c3)CC1)c1nnc(C)n1-2` [I-895], 10 to 100 µM.
With `Cc1c(F)ccc(F)c1-c1c(C(=O)N[C@@H](CC(N)=O)c2cccc(Cl)c2)cn(C)c1C(=O)c1ccccc1` [I-886], the dissociation constant Kd is under 10 µM.
The result for `COCCOCC[C@H]1CN(c2cc(N3CCCCC3)ccn2)[C@@H]2CCCN(c3cccc(F)c3)[C@H]12` [I-931] reads under 10 µM; that for `Fc1cccc(N2CCCC(Nc3nccc(N4CCNCC4)n3)C2)c1` (centres unmarked) [I-23], over 200 µM.
For the molecule `C=CC(=O)NC1CCC2(CC1)CCN(c1ccnc(N[C@@H]3CCCN(c4cccc(F)c4)C3)c1)CC2` [I-657], the Kd was under 10 µM.
On to `c1cnc2c(N3CCC[C@@H](Nc4cc(N5CCOCC5)ncn4)C3)cccc2c1` [I-396], for which the Kd was over 200 µM.
The result for `Fc1cccc([C@@H]2CCC[C@@H](Nc3nccc(N4CCOCC4)n3)C2)c1` [I-185] reads over 200 µM.
Turning to `CCOC(=O)Cc1ccc(N2CCC[C@@H](Nc3cc(N4CCOCC4)ccn3)C2)cn1` [I-782], the Kd was over 200 µM.
As to `Cc1c(F)ccc(F)c1-c1c(C(=O)N[C@@H](CC(N)=O)c2cccc(Cl)c2)c[nH]c1C#N` [I-798], the equilibrium dissociation constant (Kd) was under 10 µM.
With `C=CC(=O)N(C)C1CC(N(C)c2ccnc(N[C@@H]3CCCN(c4cccc(F)c4)C3)c2)C1` (some centres unmarked) [I-463], the Kd was over 200 µM.
To `C=CC(=O)NCCOCC1CCN(c2ccnc(N[C@@H]3CCCN(c4cccc(F)c4)C3)c2)CC1` [I-803] belongs 10 to 100 µM.
Turning to `NC(=O)C[C@H](NC(=O)C1=C(c2c(F)cccc2F)CNC1)c1cccc(Cl)c1` [I-586], the Kd is under 10 µM.
The result for `CN(c1nccc(N2CCOCC2)n1)[C@@H]1CCCN(c2cccc(F)c2)C1` [I-39] reads over 200 µM; that for `c1cnc(N2CCC[C@@H](Nc3cc(N4CCOCC4)ccn3)C2)nc1` [I-69], 100 to 200 µM.
As to `Fc1cccc(N2CCC[C@@H](Nc3cc(N4C[C@H]5CCC4CO5)ncn3)C2)c1` [I-309], the dissociation constant Kd was over 200 µM.
As to `Cc1ccccc1-c1[nH]ncc1C(=O)N[C@@H](CC(N)=O)c1cccc(Cl)c1` [I-209], the dissociation constant (Kd) was over 200 µM.
For `Cc1cccc(N2CCC[C@@H]3[C@H]2CCN3c2cc(N3CC4CC(C4)C3)ccn2)c1` [I-706], the Kd is under 10 µM.
As for `Cc1ccccc1N1CCC[C@@H](Nc2cc(N3CCOCC3)ncn2)C1` [I-4], the dissociation constant (Kd) was over 200 µM.
